This is an account of results in patent US9873674B2, “C-Rel inhibitors and uses thereof” (CORNELL UNIVERSITY, priority 2012, dated 2018).

The subject of one experiment is MM1-144 cells. The experiment can be described thus: Tumor cell cytotoxicity assay, multiple myeloma cell line MM1-144. The format is cell-based. Conditions: MM1-144 cells (use both pathways), 48 hours. The procedure: (§1) For example, the “classical” Rel pathway is crucial for the survival of L363 cell line, whereas the “alternative” pathway is important for the survival of RPMI8226 cells.
(§2) The MM and DLBCL cell lines were used to test for tumor cell cytotoxicity by the Rel inhibitor analogs. As an example, three MM cell lines were treated with a Rel inhibitor for 48 hours and cell numbers were enumerated as percentage of control group.

In experiment [1] the test system is IL-2. The experiment can be described thus: IL-2 expression by ELISA in stimulated mouse splenocytes. The format is cell-based. Particulars: Splenocyte, mouse splenocytes stimulated with anti-CD3+anti-CD28, 0 to 20 μM, read-out: IC50 of IL2 inhibition. The procedure:
In yet another example, IL-2 expression was quantified by ELISA analysis. In these experiments, mouse splenocytes were stimulated with anti-CD3+anti-CD28, in the presence of varying doses of Rel inhibitors (from 0 to 20 μM).

A further experiment has as its system IFN-γ. The experiment in a line: IFN-γ expression, intracellular cytokine staining and flow cytometry in CD4+ T cells. In kind it is cell-based, mouse or human. Conditions: anti-CD3+anti-CD28 for 6 hours, % cytokine-expressing CD4+ T cells; data not shown. The procedure: (§3) Since autoimmune diseases are associated with elevated levels of inflammatory cytokines, it is important to identify Rel inhibitors that can inhibit the expression of inflammatory cytokines. As c-Rel regulates the expression of several cytokines including IL-2, IFN-γ, and TNF, assays for these cytokines can be used to assess the anti-inflammatory effects of Rel inhibitor analogs. To perform such experiments, mouse splenocytes or human PBMCs were stimulated with anti-CD3+anti-CD28 for 6 hours to induce cytokine expression. Compounds were added at the beginning of the culture. Cytokines (IL-2, IFN-γ, and TNF) were measured by intracellular cytokine staining and flow cytometry and the % of cytokine-expressing cells within CD4+ T cell population was enumerated. Compounds at varying doses were tested.
On the technique in general: In flow cytometry, cells or beads pass a laser one at a time.

For another experiment, the system named is DLBCL tumor cells. The experiment can be described thus: DLBCL xenograft tumor model in NOD/SCID mice. In kind it is in vivo, mouse. The procedure: Xenograft tumor models have been widely used to study human cancer. […] The experiment used non-obese diabetic (NOD)/SCID mice for testing Rel inhibitor analogs.
Male NOD/SCID mice were injected with 3-5×10^6 of DLBCL tumor cells subcutaneously in each flank area. When tumors were palpable (˜12 days after injection), the mice were randomized to receive either vehicle or test compounds corresponding to Rel inhibitors of the invention. In some experiments, DHMEQ was used as a benchmark compound. Compounds were administrated via i.p. at 12 to 24 mg/kg, three days per week for 2-3 weeks. Tumor volume was measured twice a week.

Another experiment relates to TNF. The experiment can be described thus: TNF expression, intracellular cytokine staining and flow cytometry in CD4+ T cells. In kind it is cell-based, mouse or human. Conditions: anti-CD3+anti-CD28 for 6 hours, % cytokine-expressing CD4+ T cells; data not shown. The procedure:
as §3

Experiment [2] relates to IL-2. The experiment in a line: IL-2 expression, intracellular cytokine staining and flow cytometry in CD4+ T cells. The format is cell-based, mouse or human. Conditions: anti-CD3+anti-CD28 for 6 hours, % cytokine-expressing CD4+ T cells; data not shown. The procedure:
as §3

The subject of another experiment is CD69. The experiment can be described thus: Expression of non-c-Rel target genes. In kind it is cell-based, mouse or human.
A further experiment deals with L363 cells. The experiment can be described thus: Tumor cell cytotoxicity assay, multiple myeloma cell line L363. The format is cell-based. Conditions: L363 cells (active classical pathway), 48 hours. The procedure:
as §1, §2

A further experiment deals with STZ-induced diabetes. The experiment can be described thus: Streptozotocin (STZ)-induced diabetes model. Conditions: 40 μg/mouse/day IP, day 0 to day 5, C57BL/6 mice; data not shown. The format is in vivo. The procedure:
In yet another example, a Rel inhibitor compound was tested in Streptozotocin (STZ)-induced diabetes model. C57BL/6 (cRel+/+) mice were treated with low dose STZ for 5 days to induce diabetes, as indicated by glucose level above 300 mg/dl. c-Rel(−/−) mice were used as a control group. The Rel inhibitor (BA-001, 40 μg/mouse/day) or DMSO were injected IP to a group of five C57BL/6 mice for six consecutive days from day 0 to day 5. Glucose levels were determined at day 5, 7, 9, 12, 15, 19 and 27.

Another experiment relates to RPMI8226 cells. The experiment can be described thus: Tumor cell cytotoxicity assay, multiple myeloma cell line RPMI8226. The format is cell-based. Particulars: RPMI8226 cells (active alternative pathway), 48 hours. As to the method: as §1, §2
For another experiment, the system named is DLBCL tumor cell lines. The experiment can be described thus: DLBCL cytotoxicity assay. In kind it is cell-based. Conditions: read-out: IC50 on DLBCL cytotoxicity assay. The procedure:
as §2
The IC50 was defined as the concentration that causes 50% cell death compared with control samples. […] In summary, tumor cell lines were utilized to select for Rel inhibitors with tumor cytoxicity activities. […] Those compounds with in vitro anti-tumor activity were further tested in vivo using xenograft tumor models.

Another experiment concerns EAE. The experiment can be described thus: EAE model (multiple sclerosis) in C57BL/6 mice. The format is in vivo, mouse. As to the method: As an example, C57BL/6 mice were immunized to induce EAE with 1) a subcutaneous injection on flanks of […] MOG38-50 peptide in 0.1 ml PBS emulsified in an equal volume of complete Freund's adjuvant containing […] mycobacterium tuberculosis H37RA, and 2) an intravenous injection of 100 ng pertussis toxin in 0.1 ml PBS. A second injection of pertussis toxin (100 ng per mouse) was given 48 hr later.
Mice were subsequently injected i.p. with 300 μg BA-039 (n=4) or vehicle (n=3) daily beginning with the first day of EAE onset. Mice were monitored daily for disease score up to 16 days.
In a second set of this experiment, treatment of the mice was stopped on the 16th day of the study and further monitored for additional 22 days. […] By contrast, the BA-039 treated group remained devoid of disease (average clinical score 1-2) (data not shown, manuscript in preparation). […] The data provide important information about treatment regimen with Rel inhibitors for multiple sclerosis patients in the future.

In general, IC50 refers to the concentration that gives 50% inhibition. As to `COc1ccc(C=C2C(=O)NC(=S)NC2=O)c(OC)c1` [BA-001, 5-(2,4-dimethoxybenzylidene)-2-thioxodihydro-pyrimidine-4,6(1H,5H)-dione], the “growth inhibition (cell numbers as percentage of control group)” value in the experiment on MM1-144 cells is listed as “only partially inhibited”; with L363 cells it was “dose-dependent apoptosis”; in the experiment with RPMI8226 cells, “quite resistant”. In addition, the half-maximal inhibitory concentration (IC50) was 15 µM in the experiment on IL-2 [1], roughly 6 µM in the experiment with IFN-γ, roughly 6 µM in the experiment on TNF and roughly 6 µM in the experiment on IL-2 [2]. The “tumor growth compared to vehicle controls” value in the experiment with DLBCL tumor cells (24 mg/Kg i.p., three days per week, NOD/SCID mice) is recorded as “slowed the tumor growth”. Also, the “anti-tumor potency compared with DHMEQ” value in the experiment on DLBCL tumor cells (both 12 to 24 mg/kg doses, DLBCL xenograft mouse model) is reported as “much better potency than DHMEQ”. The “inhibitory effect toward non-c-Rel target genes (e.g. CD69)” value with CD69 is recorded as “no inhibitory effects”. Moreover, the “resistance to STZ-induced diabetes (glucose level)” value in the experiment on STZ-induced diabetes is recorded as “resistant to STZ-induced diabetes”.

`COc1ccc(C=C2C(=O)NC(=O)NC2=O)c2ccccc12` [BA-009, 5-((4-methoxynaphthalen-1-yl)methylene) pyrimidine-2,4,6(1H,3H,5H)-trione]: the “tumor volume compared to vehicle controls” value with DLBCL tumor cells (15 mg/kg i.p., three days per week, NOD/SCID mice) is on record as “significantly smaller tumor volume”.

`COc1ccc(N2C(=O)/C(=C\c3c(OC)ccc4ccccc34)C(=O)NC2=S)cc1` [BA-030, 5-((2-methoxynaphthalen-1-yl)methylene)-1-(4-methoxyphenyl)-2-thioxodihydro-pyrimidine-4,6(1H,5H)-dione]: the IC50 in the experiment on IL-2 [1] came out at 0.4 µM; in the experiment with DLBCL tumor cell lines it was 4 µM.

In turn, `COc1cc(OC)c2ccccc2c1C=C1C(=O)NC(=S)NC1=O` [BA-039, 5-((2,4-dimethoxynaphthalen-1-yl)methylene)-2-thioxodihydropyrimidine-4,6(1H,5H)-dione] registered a disease score in the experiment on EAE (300 μg i.p. daily from first day of EAE onset, up to 16 days, reduced from 2, vehicle rises 2 to 5) of 1. Besides, in the experiment on EAE (22 days after treatment stopped on 16th day, control group score 5), the average clinical score is 1-2.
